Structures are written as SMILES. Read-outs that look alike come from different tables or passages of the source. Where only a bound is given, the exact number is not on record here.

One assay has as its target human DGKα (Homo sapiens (Human), UniProt P23743). The assay can be described thus: DGKα LIPGLO assay (extruded liposome substrate). Format: biochemical. Summed up:
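Human full-length DGKα, His-tagged and produced in Sf9 cells, assayed at 20 nM (4× stock) on extruded liposomes of PS, 0.25 mM DAG and 2.75 mM PC, preincubated 10 min. Reaction started with 300 μM ATP (stock) and ran 1 h in MOPS pH 7.5/MgCl2/CaCl2/DTT buffer.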

Assay [1] has as its system OT-1 antigen-specific CD8+ T cells with MC38 tumor cells. Put plainly: Murine Cytotoxic T Lymphocyte Assay (IFN-γ). It counts as cell-based, mouse. The text has this:
An antigen-specific cytolytic T-cell (CTL) assay was developed to evaluate functionally the ability of DGKα and DGKζ inhibitors to enhance effector T cell mediated tumor cell killing activity. CD8+ T-cells isolated from the OT-1 transgenic mouse recognize antigen presenting cells, MC38, that present the ovalbumin derived peptide […]. Recognition of the cognate antigen initiates the cytolytic activity of the OT-1 antigen-specific CD8+ T cells.
Functional CTL cells were generated as follows: OT-1 splenocytes from 8-12 week old mice were isolated and expanded in the presence of the […] peptide at 1 μg/mL and mIL2 at 10 U/mL. After three days, fresh media with mIL2 U/mL was added. On day 5 of the expansion, the CD8+ T cells were isolated and ready for use. Activated CTL cells may be stored frozen for 6 months. […] The cells were washed (3×) with fresh media to remove excess peptide. Finally, CTL cells that were pretreated with DGK inhibitors for 1 hour in a 96-well U bottom plate were combined with the antigen loaded MC38 tumor cells at a 1:10 ratio. The cells were then spun at 700 rpm for 5 min and placed in an incubator overnight at 37° C. After 24 hours, the supernatant was collected for analysis of IFN-γ cytokine levels by AlphaLisa purchased from Perkin Elmer.

In assay [2] the test system is Jurkat AP1-luciferase Reporter. The assay can be described thus: DGK AP1-Reporter Assay. It counts as cell-based. Summed up:
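Jurkat cells carrying a lentiviral AP1-luciferase reporter received 30 nl compound per well for 20 min at 37 °C and 5% CO2. They were then stimulated for 6 h with anti-CD3 solution at 0.4 μg/mL; reference wells received 4 μg/mL and unstimulated wells medium only. Readout was Steady-Glo luciferase luminescence (RLU).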

Setting [3] is: Mus musculus, MC-38, read-out: msCTL INF-γ IC50, murine CTL IFN-γ (table title reads INF-γ Whole Blood Normalized Agonist EC50).
Where [4] appears, read: Homo sapiens, Jurkat, read-out: API-Luciferase Reporter IC50, Table 3.
Where [5] appears, read: Homo sapiens, Jurkat, read-out: DGKAP1 Lucif Reporter IC50, Table 4.
The mark [6] stands for this setting: read-out: msCTL INF-γ IC50, murine CTL IFN-γ (table title reads INF-γ Whole Blood Normalized Agonist EC50).

human DGKα, sequence (P23743 other isoform, or with tags, fused parts or gaps): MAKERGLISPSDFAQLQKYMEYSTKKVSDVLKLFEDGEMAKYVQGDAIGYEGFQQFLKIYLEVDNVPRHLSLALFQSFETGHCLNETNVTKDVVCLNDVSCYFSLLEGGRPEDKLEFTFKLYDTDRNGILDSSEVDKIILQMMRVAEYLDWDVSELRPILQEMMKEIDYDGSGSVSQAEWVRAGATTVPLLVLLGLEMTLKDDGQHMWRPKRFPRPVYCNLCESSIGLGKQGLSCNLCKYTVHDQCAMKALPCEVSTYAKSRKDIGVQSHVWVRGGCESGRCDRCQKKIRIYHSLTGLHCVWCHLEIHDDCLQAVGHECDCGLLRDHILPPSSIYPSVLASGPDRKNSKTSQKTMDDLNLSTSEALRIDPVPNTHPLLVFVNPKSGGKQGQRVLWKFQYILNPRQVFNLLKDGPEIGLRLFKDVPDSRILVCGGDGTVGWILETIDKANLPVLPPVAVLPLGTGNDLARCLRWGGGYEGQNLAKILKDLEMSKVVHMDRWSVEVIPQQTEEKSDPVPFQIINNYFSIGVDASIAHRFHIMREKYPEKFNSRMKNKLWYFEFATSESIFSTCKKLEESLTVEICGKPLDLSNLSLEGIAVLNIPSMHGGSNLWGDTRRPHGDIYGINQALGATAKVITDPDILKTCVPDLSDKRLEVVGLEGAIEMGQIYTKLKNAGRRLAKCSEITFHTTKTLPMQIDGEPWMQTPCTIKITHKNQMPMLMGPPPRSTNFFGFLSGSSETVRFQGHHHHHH

Take `COc1ccccc1C(c1ccc(F)cc1)N1CCN(c2c(C#N)c(=O)n(C)c3ccc(Br)nc23)CC1` (single isomer, unassigned) [Example 13, 6-bromo-4-{4-[(4-fluorophenyl)(2-methoxyphenyl)methyl]piperazin-1-yl}-1-methyl-2-oxo-1,2-dihydro-1,5-naphthyridine-3-carbonitrile]: the IC50 against human DGKα was determined as 5.4 µM; in assay [1] (setting [3]), 0.64 µM; in assay [2] (setting [4]), 1.3 µM.

As for `Cc1ccc(CN2CCN(c3c(C#N)c(=O)n(C)c4ccc(Cl)nc34)CC2)c(F)c1` [Example 423, 6-chloro-4-{4-[(2-fluoro-4-methylphenyl)methyl]piperazin-1-yl}-1-methyl-2-oxo-1,2-dihydro-1,5-naphthyridine-3-carbonitrile], the IC50 came out at 2.2 µM against human DGKα, 0.7 µM in assay [1] (setting [3]) and 1.88 µM in assay [2] (setting [4]).

With `Cc1ccc(CN2CCN(c3c(C#N)c(=O)n(C)c4ccc(Cl)nc34)CC2)cc1` [Example 386, 6-chloro-1-methyl-4-{4-[(4-methylphenyl)methyl]piperazin-1-yl}-2-oxo-1,2-dihydro-1,5-naphthyridine-3-carbonitrile], the results for the IC50 (at human DGKα; in assay [1] (setting [3]); in assay [2] (setting [4])) were 0.26 µM, 0.59 µM and 0.05 µM, respectively.

With `Cc1cccc(CN2CCN(c3c(C#N)c(=O)n(C)c4ccc(Cl)nc34)CC2)c1O` [Example 391, 6-chloro-4-{4-[(2-hydroxy-3-methylphenyl)methyl]piperazin-1-yl}-1-methyl-2-oxo-1,2-dihydro-1,5-naphthyridine-3-carbonitrile], the IC50 came to 1.8 µM against human DGKα, 0.73 µM in assay [1] (setting [3]) and 0.07 µM in assay [2] (setting [4]).

`CC(c1ccc(F)cc1)N1CCN(c2c(C#N)c(=O)n(C)c3ccc(Cl)nc23)CC1` (single isomer, unassigned) [Example 387, 6-chloro-4-{4-[1-(4-fluorophenyl)ethyl]piperazin-1-yl}-1-methyl-2-oxo-1,2-dihydro-1,5-naphthyridine-3-carbonitrile]: the IC50 against human DGKα stood at 0.27 µM; in assay [2] (setting [5]), 3.33 µM.

Take `COc1cc(F)ccc1C(c1ccc(F)cc1)N1CCN(c2c(C#N)c(=O)n(C)c3ccc(Br)nc23)CC1` (single isomer, unassigned) [Example 17, 6-bromo-4-{4-[(4-fluoro-2-methoxyphenyl)(4-fluorophenyl)methyl]piperazin-1-yl}-1-methyl-2-oxo-1,2-dihydro-1,5-naphthyridine-3-carbonitrile]: the IC50 against human DGKα is 3.5 µM; in assay [1] (setting [3]), 0.19 µM; in assay [2] (setting [4]), 0.35 µM; in assay [2] (setting [5]) it was 1.33 µM.

Regarding `Cn1c(=O)c(C#N)c(N2CCN(Cc3cccc4ccccc34)CC2)c2nc(C#N)ccc21` [Example 404, 5-methyl-8-{4-[(naphthalen-1-yl)methyl]piperazin-1-yl}-6-oxo-5,6-dihydro-1,5-naphthyridine-2,7-dicarbonitrile], the IC50 came out at 4.9 µM at human DGKα and 9.84 µM in assay [1] (setting [3]).

In the case of `COc1ccc2c(n1)c(N1CCN(C(c3ccc(F)cc3)c3ccc(F)cc3OC)CC1)c(C#N)c(=O)n2C` (racemic) [Example 412, 4-{4-[(4-fluoro-2-methoxyphenyl)(4-fluorophenyl)methyl]piperazin-1-yl}-6-methoxy-1-methyl-2-oxo-1,2-dihydro-1,5-naphthyridine-3-carbonitrile], the IC50 against human DGKα was 1.8 µM; in assay [1] (setting [3]), 0.36 µM.

For the compound `C#CCn1c(=O)c([N+](=O)[O-])c(N2CCN(C(CC)c3ccc(F)cc3)CC2)c2nc(C#N)ccc21` (single isomer, unassigned) [Example 141, 8-{4-[1-(4-fluorophenyl)propyl]piperazin-1-yl}-7-nitro-6-oxo-5-(prop-2-yn-1-yl)-5,6-dihydro-1,5-naphthyridine-2-carbonitrile], the values for the IC50 (at human DGKα; in assay [1] (setting [3]); in assay [2] (setting [4])) were 0.58 µM, 0.29 µM and 0.24 µM, respectively.

As for `Cn1c(=O)c(C#N)c(N2CCN(C(c3ccc(F)cc3)C3CCC3)CC2)c2nc(Cl)ccc21` (single isomer, unassigned) [Example 382, 6-chloro-4-{4-[cyclobutyl(4-fluorophenyl)methyl]piperazin-1-yl}-1-methyl-2-oxo-1,2-dihydro-1,5-naphthyridine-3-carbonitrile], the results for the IC50 (against human DGKα; in assay [2] (setting [5])) were 0.76 µM and 10 µM, respectively.

On to `C#CCn1c(=O)c([N+](=O)[O-])c(N2CCN(C(c3ccc(F)cc3)c3ccc(F)cc3O)CC2)c2nc(C#N)ccc21` (single isomer, unassigned) [Example 121, 8-(4-((4-fluoro-2-hydroxyphenyl)(4-fluorophenyl)methyl)piperazin-1-yl)-7-nitro-6-oxo-5-(prop-2-yn-1-yl)-5,6-dihydro-1,5-naphthyridine-2-carbonitrile], for which the IC50 at human DGKα is 6.4 µM; in assay [1] (setting [3]), 0.05 µM; in assay [2] (read-out: API-Luciferase Reporter IC50, Table 3), 0.34 µM.

As for `Cc1ccc(CN2CCN(c3c(C#N)c(=O)n(C)c4ccc(Br)nc34)CC2)c(O)c1` [Example 372, 6-bromo-4-{4-[(2-hydroxy-4-methylphenyl)methyl]piperazin-1-yl}-1-methyl-2-oxo-1,2-dihydro-1,5-naphthyridine-3-carbonitrile], the IC50 against human DGKα stood at 0.078 µM; in assay [1] (setting [3]), 2.55 µM; in assay [2] (setting [4]) it was 0.14 µM.

Take `Cn1c(=O)c([N+](=O)[O-])c(N2CCN(CC(O)c3ccc(F)cc3)CC2)c2nc(C#N)ccc21` (centres unmarked) [Example 36, 8-{4-[2-(4-fluorophenyl)-2-hydroxyethyl]piperazin-1-yl}-5-methyl-7-nitro-6-oxo-5,6-dihydro-1,5-naphthyridine-2-carbonitrile]: the IC50 came to 6.8 µM on human DGKα, 10 µM in assay [1] (setting [3]) and 1.6 µM in assay [2] (setting [4]).

Regarding `COc1cc(F)ccc1C(c1ccc(F)cc1)N1CCN(c2c(C#N)c(=O)n(C)c3ccc(C#N)nc23)CC1` (single isomer, unassigned) [Example 406, 8-{4-[(4-fluoro-2-methoxyphenyl)(4-fluorophenyl)methyl]piperazin-1-yl}-5-methy-6-oxo-5,6-dihydro-L5-naphthyridine-2,7-dicarbonitrile], the results for the IC50 (against human DGKα; in assay [1] (setting [6])) were 13 µM and 0.16 µM, respectively.

In the case of `CC(c1ccc(F)cc1)N1CCN(c2c(C#N)c(=O)n(C)c3ccc(Cl)nc23)CC1` (single isomer, unassigned) [Example 388, 6-chloro-4-{4-[1-(4-fluorophenyl)ethyl]piperazin-1-yl}-1-methyl-2-oxo-1,2-dihydro-1,5-naphthyridine-3-carbonitrile], the IC50 at human DGKα was 0.051 µM; in assay [2] (read-out: DGKAP1 Lucif Reporter IC50, Table 4), 3.33 µM.

Turning to `Cn1c(=O)c(C#N)c(N2CCN(C(c3ccc(F)cc3)c3ccccc3O)CC2)c2nc(C#N)ccc21` (centres unmarked) [Example 11, 8-{4-[(4-fluorophenyl)(2-hydroxyphenyl)methyl]piperazin-1-yl}-5-methyl-6-oxo-5,6-dihydro-1,5-naphthyridine-2,7-dicarbonitrile], the results for the IC50 (against human DGKα; in assay [2] (setting [4])) were 1.8 µM and 0.08 µM, respectively.

For `CC(C)C(c1ccc(F)cc1)N1CCN(c2c(C#N)c(=O)n(C)c3ccc(Cl)nc23)CC1` (single isomer, unassigned) [Example 315, 6-chloro-4-{4-[1-(4-fluorophenyl)-2-methylpropyl]piperazin-1-yl}-methyl-2-oxo-1,2-dihydro-1,5-naphthyridine-3-carbonitrile], the results for the IC50 (at human DGKα; in assay [2] (setting [5])) were over 240 µM and 10 µM, respectively.

In the case of `Cn1c(=O)c(C#N)c(N2CCN(C(CC(C)(C)C)c3ccc(F)cc3)CC2)c2nc(Cl)ccc21` (single isomer, unassigned) [Example 377, 6-chloro-4-{4-[1-(4-fluorophenyl)-3,3-dimethylbutyl]piperazin-1-yl}-1-methyl-2-oxo-1,2-dihydro-1,5-naphthyridine-3-carbonitrile], the IC50 at human DGKα is over 240 µM; in assay [2] (setting [5]), 10 µM.

Take `Cn1c(=O)c(C#N)c(N2CCN(C(C)(C)c3ccc(F)cc3)CC2)c2nc(Cl)ccc21` [Example 425, 6-chloro-4-{4-[2-(4-fluorophenyl)propan-2-yl]piperazin-1-yl}-1-methyl-2-oxo-1,2-dihydro-1,5-naphthyridine-3-carbonitrile]: the IC50 on human DGKα amounted to 20 µM; in assay [1] (setting [3]), 2.98 µM.

Regarding `COc1cc(F)ccc1C(c1ccc(F)cc1)N1CCN(c2c(C#N)c(=O)n(C)c3ccc(C#N)nc23)CC1` (single isomer, unassigned) [Example 407, 8-{4-[(4-fluoro-2-methoxyphenyl)(4-fluorophenyl)methyl]piperazin-1-yl}-5-methy-6-oxo-5,6-dihydro-L5-naphthyridine-2,7-dicarbonitrile], the IC50 is 0.96 µM on human DGKα and 0.04 µM in assay [1] (setting [6]).

(Values after patent US11866430B2, “Naphthyridinone compounds useful as T cell activators” (priority 2018, dated 2024).)
